Consider 10 compounds from ChEMBL document CHEMBL1201862, “PubChem BioAssay data set” (2004).

Test systems include IGROV-1; U-251; A549; RXF 393; SR; Malme-3M; M14; HOP-92; NCI-H226; OVCAR-5; NCI-H522; TK-10; HL-60; MDA-MB-231; UACC-62; CAKI-1; SF-295; HT-29; SF-268.
Test in all cases: NCI tumour cell line growth inhibition, 48 h

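Each compound was tested at five concentrations against cells in 96-well plates for 48 hours. GI50 is the concentration that inhibits growth by half.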 Calls of active or inactive are those of the source. No stated cut-off is given here; in the data, active = GI50 up to about 1.1 µM and inactive = higher.

With `CC(=O)O[C@H]1CC[C@@]2(C)C(=CC[C@H]3[C@@H]4C/C(=C\c5ccncc5)[C@H](OC(C)=O)[C@@]4(C)CC[C@@H]32)C1`, the GI50 in the experiment on IGROV-1 was 11.6 µM (inactive); with U-251 it was 10 µM (inactive); in the experiment with A549, 6.08 µM (inactive); in the experiment with RXF 393, 2.73 µM (inactive); with SR it was 2.7 µM (inactive); in the experiment on Malme-3M, 7.67 µM (inactive). For the same compound, the GI50 with M14 was 10.9 µM (inactive); in the experiment on HOP-92 it was 3.48 µM (inactive); with NCI-H226 it was 11.8 µM (inactive); with OVCAR-5, 16.9 µM (inactive); in the experiment on NCI-H522 it was 3.65 µM (inactive); in the experiment on TK-10 it was 22.5 µM (inactive). The GI50 is 4.01 µM (inactive) in the experiment on HL-60; 19.1 µM (inactive) with MDA-MB-231; 13.2 µM (inactive) in the experiment with UACC-62; 11.2 µM (inactive) in the experiment on CAKI-1; 5.02 µM (inactive) with SF-295; 6.41 µM (inactive) with HT-29. Besides, the GI50 in the experiment with SF-268 was 10.9 µM (inactive).

`CCCCCCCCCCCC[C@H](O)[C@H]1CC[C@H]([C@H](O)CCCC[C@H](O)CCCCC[C@@H](O)CC2=C[C@H](C)OC2=O)O1`: the GI50 in the experiment with IGROV-1 is 3.98 µM (inactive); with U-251 it was 13.8 µM (inactive); with A549, 2.34 µM (inactive); in the experiment on RXF 393, 16.6 µM (inactive); in the experiment with SR, 2.82 µM (inactive); in the experiment on Malme-3M it was 17.9 µM (inactive). For the same compound, the GI50 with M14 was 3.45 µM (inactive); with HOP-92, 4.03 µM (inactive); in the experiment on NCI-H226 it was 2.84 µM (inactive); in the experiment on OVCAR-5, 17.7 µM (inactive); in the experiment with NCI-H522, 5.21 µM (inactive); in the experiment with TK-10, 1.77 µM (inactive). For the same compound, the GI50 in the experiment on HL-60 is 2.15 µM (inactive); in the experiment on MDA-MB-231, 1.88 µM (inactive); in the experiment on UACC-62, 1.19 µM (inactive); in the experiment on CAKI-1 it was 6.24 µM (inactive); with SF-295 it was 1.63 µM (inactive); with HT-29, 2.82 µM (inactive). The GI50 in the experiment with SF-268 was 3.33 µM (inactive).

Turning to `C=C1C(=O)OC2C1C(OC(=O)/C(C)=C/C)CC(O)(CCl)C1C(O)C3OC3(C)C21O` (stereo not given), the GI50 with IGROV-1 was > 50 µM (inactive); in the experiment with U-251 it was > 50 µM (inactive); in the experiment with A549, > 50 µM (inactive); in the experiment with RXF 393, 9.77 µM (inactive); in the experiment with SR, 17 µM (inactive); in the experiment with Malme-3M, 0.735 µM (active). The GI50 is 23.3 µM (inactive) with M14; 24.9 µM (inactive) with HOP-92; > 50 µM (inactive) with NCI-H226; > 50 µM (inactive) in the experiment on OVCAR-5; 0.7 µM (active) in the experiment on NCI-H522; 40.1 µM (inactive) in the experiment with TK-10. In addition, the GI50 was 8.79 µM (inactive) in the experiment on HL-60; > 50 µM (inactive) in the experiment on MDA-MB-231; 34.6 µM (inactive) in the experiment on UACC-62; 13.2 µM (inactive) in the experiment with CAKI-1; > 50 µM (inactive) in the experiment on SF-295; 36.9 µM (inactive) in the experiment with HT-29. In addition, the GI50 in the experiment with SF-268 was > 50 µM (inactive).

Take `CCOC(=O)C1=CN(C(=O)c2ccccc2)CCC1Cc1ccccc1` (stereo not given): the GI50 in the experiment on IGROV-1 is 27.3 µM (inactive); in the experiment with U-251, 21.1 µM (inactive); in the experiment on A549 it was 29.2 µM (inactive); in the experiment on RXF 393 it was 18.1 µM (inactive); in the experiment with SR it was 12.5 µM (inactive); in the experiment on Malme-3M, 25.4 µM (inactive). The GI50 in the experiment with M14 is 18.6 µM (inactive); with HOP-92, 14.7 µM (inactive); in the experiment with NCI-H226 it was 43.6 µM (inactive); in the experiment with OVCAR-5 it was 44.6 µM (inactive); in the experiment with NCI-H522, 16.2 µM (inactive); with TK-10, 22.9 µM (inactive). Moreover, the GI50 in the experiment on HL-60 was 9.04 µM (inactive); in the experiment on MDA-MB-231 it was 17.7 µM (inactive); in the experiment with UACC-62, 13.7 µM (inactive); with CAKI-1, 24.4 µM (inactive); in the experiment on SF-295, 29.1 µM (inactive); in the experiment on HT-29, 17 µM (inactive). For the same compound, the GI50 in the experiment on SF-268 is 32.9 µM (inactive).

As for `CCn1cc(C(=O)O)c(=O)c2cc(F)c(N3CCN(CN4C(=O)/C(=N\NC(=O)c5ccncc5)c5cc(Cl)ccc54)CC3)cc21`, the GI50 was 18.3 µM (inactive) in the experiment with IGROV-1; 33 µM (inactive) in the experiment on U-251; 57.3 µM (inactive) with A549; 19.6 µM (inactive) in the experiment with RXF 393; 2.34 µM (inactive) in the experiment with SR; 86.1 µM (inactive) with Malme-3M. For the same compound, the GI50 in the experiment on M14 was 54 µM (inactive); in the experiment with HOP-92, 45.5 µM (inactive); in the experiment with NCI-H226, > 100 µM (inactive); with OVCAR-5 it was > 100 µM (inactive); with NCI-H522 it was 21.8 µM (inactive); in the experiment on TK-10, 24.7 µM (inactive). The GI50 in the experiment on HL-60 is 15.8 µM (inactive); in the experiment with MDA-MB-231, 52.7 µM (inactive); with UACC-62 it was 58.7 µM (inactive); with CAKI-1 it was 23.7 µM (inactive); with SF-295, > 100 µM (inactive); in the experiment with HT-29 it was 32.7 µM (inactive). Besides, the GI50 in the experiment with SF-268 was 61.4 µM (inactive).

For `N#C/C(=C\c1ccc([N+](=O)[O-])o1)c1n[nH]c(Cc2ccccc2)n1`, the GI50 in the experiment on IGROV-1 is 1.4 µM (inactive); with U-251, 2.81 µM (inactive); with A549, 2.56 µM (inactive); with RXF 393, 0.423 µM (active); with SR, 0.173 µM (active); in the experiment on Malme-3M it was 1.94 µM (inactive). Further, the GI50 is 1.63 µM (inactive) with M14; 2.77 µM (inactive) with HOP-92; 1.65 µM (inactive) in the experiment with NCI-H226; 1.64 µM (inactive) with OVCAR-5; 0.368 µM (active) in the experiment on NCI-H522; 2 µM (inactive) in the experiment on TK-10. Also, the GI50 in the experiment on HL-60 was 3.06 µM (inactive); in the experiment with MDA-MB-231, 1.57 µM (inactive); with UACC-62, 1.52 µM (inactive); in the experiment on CAKI-1 it was 1.95 µM (inactive); in the experiment on SF-295, 7.26 µM (inactive); with HT-29, 1.05 µM (active). In addition, the GI50 with SF-268 is 0.641 µM (active).

Take `CN(C)CC1CCCCCC(Br)C1=O` (stereo not given): the GI50 in the experiment with IGROV-1 was 28.2 µM (inactive); with U-251, 19.6 µM (inactive); with A549 it was > 70.8 µM (inactive); in the experiment with RXF 393 it was 15.4 µM (inactive); in the experiment with SR it was 1.64 µM (inactive); in the experiment with Malme-3M, 6.5 µM (inactive). In addition, the GI50 is 15.6 µM (inactive) in the experiment on M14; 5.66 µM (inactive) with HOP-92; 20.7 µM (inactive) with NCI-H226; 17.2 µM (inactive) in the experiment on OVCAR-5; 3.66 µM (inactive) in the experiment on NCI-H522; 4.06 µM (inactive) in the experiment on TK-10. Moreover, the GI50 was 6.12 µM (inactive) in the experiment with HL-60; 16.1 µM (inactive) in the experiment with MDA-MB-231; 18.7 µM (inactive) in the experiment with UACC-62; 6.59 µM (inactive) in the experiment on CAKI-1; > 64.6 µM (inactive) in the experiment on SF-295; 7.76 µM (inactive) in the experiment with HT-29. The GI50 in the experiment on SF-268 is 24.2 µM (inactive).

Take `CCOC(=O)/C=C(/C(=O)OCC)n1cc(C)c(=O)n(Cc2cn(COCCOC(C)=O)nn2)c1=O`: the GI50 was 17.2 µM (inactive) in the experiment on IGROV-1; 26.3 µM (inactive) with U-251; > 100 µM (inactive) with A549; 23.7 µM (inactive) in the experiment with RXF 393; 20.9 µM (inactive) in the experiment with SR; 11 µM (inactive) in the experiment with Malme-3M. Moreover, the GI50 is 46 µM (inactive) with M14; 13.2 µM (inactive) with HOP-92; 21.1 µM (inactive) in the experiment on NCI-H226; 27.8 µM (inactive) in the experiment with OVCAR-5; 2.49 µM (inactive) with NCI-H522; 14.2 µM (inactive) in the experiment with TK-10. Also, the GI50 is 8.57 µM (inactive) in the experiment on HL-60; 28.4 µM (inactive) in the experiment on MDA-MB-231; 17.1 µM (inactive) in the experiment with UACC-62; 9.59 µM (inactive) in the experiment on CAKI-1; > 100 µM (inactive) in the experiment on SF-295; 16.1 µM (inactive) with HT-29. The GI50 in the experiment with SF-268 was 19.5 µM (inactive).

On to `C/C=C1/CN2CCC34c5ccccc5N5C(=O)C(C6CC78c9ccccc9N9C(=O)C=CC(C%10CC7N6C/C%10=C/C)C98)=CC(C1CC23)C54` (stereo not given), for which the GI50 in the experiment on IGROV-1 was 4.43 µM (inactive); in the experiment on U-251 it was 5.92 µM (inactive); in the experiment with A549, 8.15 µM (inactive); with RXF 393, 1.73 µM (inactive); with SR, 0.667 µM (active); in the experiment on Malme-3M, 7.82 µM (inactive). In addition, the GI50 with M14 is 5.52 µM (inactive); with HOP-92, 6.32 µM (inactive); in the experiment with NCI-H226, 7.13 µM (inactive); with OVCAR-5 it was 10.2 µM (inactive); in the experiment with NCI-H522, 3.11 µM (inactive); with TK-10, 7.52 µM (inactive). Moreover, the GI50 with HL-60 was 0.183 µM (active); in the experiment on MDA-MB-231 it was 2.32 µM (inactive); with UACC-62, 7.69 µM (inactive); in the experiment on CAKI-1, 8.71 µM (inactive); in the experiment on SF-295 it was 9.2 µM (inactive); with HT-29, 2.44 µM (inactive). Also, the GI50 in the experiment on SF-268 was 6.89 µM (inactive).

Take `COC(=O)C1=C(C)NC(C)=C(C(=O)OC)C1c1cccc(/[N+]([O-])=C/c2ccccc2)c1`: the GI50 is 74.3 µM (inactive) with IGROV-1; > 100 µM (inactive) with U-251; > 100 µM (inactive) with A549; 16.4 µM (inactive) in the experiment with RXF 393; 21.8 µM (inactive) with SR; 16.3 µM (inactive) in the experiment on Malme-3M. Moreover, the GI50 was 18.6 µM (inactive) with M14; 23.4 µM (inactive) with HOP-92; > 100 µM (inactive) with NCI-H226; > 100 µM (inactive) in the experiment on OVCAR-5; 16.4 µM (inactive) in the experiment on NCI-H522; 38.9 µM (inactive) in the experiment with TK-10. The GI50 was 15.3 µM (inactive) in the experiment with HL-60; 17.5 µM (inactive) in the experiment with MDA-MB-231; 28.5 µM (inactive) in the experiment with UACC-62; 18.1 µM (inactive) with CAKI-1; > 100 µM (inactive) in the experiment on SF-295; 28.3 µM (inactive) in the experiment on HT-29. Also, in the experiment with SF-268, the GI50 is 69.5 µM (inactive).
